Patent US10457659B2, “Compositions and methods for increasing proliferation of adult salivary stem cells” (The Board of Trustees of the Leland Stanford Junior …, priority 2011, dated 2019)
“Also recorded” adds a separate entry of the source.

What was measured:
[1] = molecular target: T1, human ALDH3 recombinant enzyme (Homo sapiens, UniProt P30838); assay: Catalytic activity of recombinant ALDH3 enzyme (isozyme selectivity, FIG. 3A); type: biochemical; conditions: n=3, p<0.01
T1 sequence (P30838 1-453): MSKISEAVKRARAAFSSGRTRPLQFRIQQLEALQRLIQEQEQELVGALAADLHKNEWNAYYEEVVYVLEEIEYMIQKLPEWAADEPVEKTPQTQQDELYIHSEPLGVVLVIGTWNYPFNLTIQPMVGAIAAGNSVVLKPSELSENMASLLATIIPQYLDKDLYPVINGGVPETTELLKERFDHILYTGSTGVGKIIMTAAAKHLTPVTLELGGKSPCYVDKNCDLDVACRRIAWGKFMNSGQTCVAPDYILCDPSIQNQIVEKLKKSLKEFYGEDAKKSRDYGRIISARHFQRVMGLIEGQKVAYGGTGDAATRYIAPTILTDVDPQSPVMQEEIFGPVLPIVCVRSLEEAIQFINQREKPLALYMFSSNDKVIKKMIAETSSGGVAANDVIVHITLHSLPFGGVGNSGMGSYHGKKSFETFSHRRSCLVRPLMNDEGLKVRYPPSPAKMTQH
Procedure: (§1) As an example of an assay for dehydrogenase activity, ALDH aldehyde dehydrogenase activity is assayed at 25° C. in 50 mM sodium pyrophosphate HCl buffer, pH 9.0, 100 mM sodium phosphate buffer, pH 7.4, or 50 mM sodium phosphate buffer, pH 7.4, where the buffer includes NAD^+ (e.g., 0.8 mM NAD^+, or higher, e.g., 1 mM, 2 mM, or 5 mM NAD^+) and an aldehyde substrate such as 14 μM propionaldehyde. Reduction of NAD^+ is monitored at 340 nm using a spectrophotometer, or by fluorescence increase using a fluoromicrophotometer Enzymatic activity can be assayed using a standard spectrophotometric method, e.g., by measuring a reductive reaction of the oxidized form of nicotinamide adenine dinucleotide (NAD^+) to its reduced form, NADH, at 340 nm, as described in US 2005/0171043; and WO 2005/057213, and as depicted schematically in FIG. 4. In an exemplary assay, the reaction is carried out at 25° C. in […] pyrophosphate (NaPPi) buffer, pH 9.0, 2.4 mM NAD^+ and 10 mM acetaldehyde as the substrate. Enzymatic activity is measured by a reductive reaction of NAD^+ to NADH at 340 nm, as described in US 2005/0171043; and WO 2005/057213. Alternatively, the production of NADH can be coupled with another enzymatic reaction that consumes NADH and that provides for a detectable signal. […]

ALDH1 = molecular target: T2, ALDH1 (Homo sapiens, UniProt P00352); assay: Catalytic activity of ALDH1 isozyme (isozyme selectivity, FIG. 3A); type: biochemical
T2 sequence (P00352 1-501): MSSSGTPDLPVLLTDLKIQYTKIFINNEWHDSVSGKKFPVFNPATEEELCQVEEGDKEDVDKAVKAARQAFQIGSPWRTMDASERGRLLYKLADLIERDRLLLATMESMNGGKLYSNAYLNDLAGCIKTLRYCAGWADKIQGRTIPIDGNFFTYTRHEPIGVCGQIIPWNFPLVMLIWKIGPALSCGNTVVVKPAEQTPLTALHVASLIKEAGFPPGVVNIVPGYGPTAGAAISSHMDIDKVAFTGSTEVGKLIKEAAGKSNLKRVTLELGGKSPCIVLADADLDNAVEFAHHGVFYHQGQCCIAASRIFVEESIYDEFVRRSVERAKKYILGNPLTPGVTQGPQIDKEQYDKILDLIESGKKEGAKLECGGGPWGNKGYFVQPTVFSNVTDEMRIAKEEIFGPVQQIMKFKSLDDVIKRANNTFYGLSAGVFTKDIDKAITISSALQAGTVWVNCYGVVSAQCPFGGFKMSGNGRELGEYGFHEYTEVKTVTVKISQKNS
Procedure: as §1

ALDH2 = molecular target: T3, ALDH2 (Homo sapiens, UniProt P05091); assay: Catalytic activity of ALDH2 isozyme (isozyme selectivity, FIG. 3A); type: biochemical
T3 sequence (P05091 18-517): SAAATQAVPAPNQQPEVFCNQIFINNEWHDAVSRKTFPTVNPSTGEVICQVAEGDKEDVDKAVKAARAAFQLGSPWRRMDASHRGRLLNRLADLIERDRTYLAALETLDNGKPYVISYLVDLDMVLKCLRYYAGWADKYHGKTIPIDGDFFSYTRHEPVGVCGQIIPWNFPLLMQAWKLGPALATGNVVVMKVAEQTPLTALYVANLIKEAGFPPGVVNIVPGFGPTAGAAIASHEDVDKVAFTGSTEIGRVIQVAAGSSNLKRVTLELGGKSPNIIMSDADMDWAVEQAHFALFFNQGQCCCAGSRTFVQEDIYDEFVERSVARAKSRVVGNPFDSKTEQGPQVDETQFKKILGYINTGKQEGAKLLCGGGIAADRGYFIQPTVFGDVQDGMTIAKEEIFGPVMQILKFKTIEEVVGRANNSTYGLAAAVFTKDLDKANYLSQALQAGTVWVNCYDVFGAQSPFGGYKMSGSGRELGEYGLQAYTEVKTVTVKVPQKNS
Procedure: as §1

ALDH5 = assay: Catalytic activity of ALDH5 isozyme (isozyme selectivity, FIG. 3A); type: biochemical
Procedure: as §1

ALDH3 = molecular target: T4, ALDH3 (Mus musculus, UniProt P47739); assay: ALDH3 enzyme activity in esophagus cell homogenate after osmotic pump infusion into mice (FIG. 3B); type: in vivo; conditions: 34 mg/kg/day, n=5, p<0.05
T4 construct: enhanced ALDH3 enzyme activity by 29% in esophagus cell homogenate; from tissue; host or cells: esophagus cell homogenate of C57BL/6 mice
T4 sequence (P47739 1-453): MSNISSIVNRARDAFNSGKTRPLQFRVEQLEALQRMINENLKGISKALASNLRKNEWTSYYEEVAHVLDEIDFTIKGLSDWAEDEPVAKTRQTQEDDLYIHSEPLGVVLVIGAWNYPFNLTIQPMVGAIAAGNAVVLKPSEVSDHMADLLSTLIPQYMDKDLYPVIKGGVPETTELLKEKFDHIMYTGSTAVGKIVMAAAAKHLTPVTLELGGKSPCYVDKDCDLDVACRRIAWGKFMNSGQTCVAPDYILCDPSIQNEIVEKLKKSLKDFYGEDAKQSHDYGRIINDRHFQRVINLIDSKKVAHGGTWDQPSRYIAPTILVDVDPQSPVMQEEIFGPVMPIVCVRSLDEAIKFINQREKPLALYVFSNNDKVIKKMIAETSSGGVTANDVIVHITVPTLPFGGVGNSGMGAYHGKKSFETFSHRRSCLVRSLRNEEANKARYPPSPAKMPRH

c-kit+/CD90+ SMG cells = assay: FACS count of c-Kit+/CD90+ submandibular gland cells after 7 days of infusion in mice (FIG. 3C); type: in vivo, mouse
Procedure: All animal procedures were approved by the Institutional Animal Care and Use Committee at Stanford University. Female C57BL/6 mice (n=10, 4-5 weeks old, Jackson Laboratory, Sacramento, Calif.) were used for ALDH3 activator study.
(§2) An ALDH3 activator (Alda89, 100 ug/ml, n=5) and Vehicle control ([…]; 50% DMSO and 50% PEG400, n=5) was injected into ALZET osmotic pumps (DURECT Corporation, Cupertino, Calif.). The osmotic pumps were implanted subcutaneously into C57BL/6 mice. The mice were euthanized after 7 days and salivary gland tissues were collected for analysis of salsiphere formation and BrdU incorporation as described above. In addition, FACs analysis for anti-mouse c-Kit and anti-mouse CD90 (BD Biosciences, San Jose, Calif.) cell population was also performed in pooled SMG samples.

SMG salispheres = assay: Salisphere formation and BrdU incorporation of unselected SMG cells from treated mice (FIG. 3D); type: in vivo, mouse
Procedure: After 3 days of culture, cells were stained with Brdu staining kit according to the manufacturer's instructions (Invitrogen, Carlsbdad, Calif.). The total number of salispheres and BrdU positive salispheres per 96 well were counted under light microscopy. For each group 20 wells were counted and experiments were repeated 3 times.
as §2

In the case of C=CCc1ccc2c(c1)OCO2 [Alda-89, 5-(2-propenyl)-1,3-benzodioxole], the “catalytic activity of human ALDH3 recombinant enzyme” value [1] is reported as 304.4±7.1 % of control, the “effect on ALDH1 isozyme catalytic activity” value (ALDH1) is reported as “no effect” and the “effect on ALDH2 isozyme catalytic activity” value (ALDH2) is reported as “no effect”. The “effect on ALDH5 isozyme catalytic activity” value (ALDH5) was “no effect”, the “enhancement of ALDH3 enzyme activity in esophagus cell homogenate vs vehicle control” value (ALDH3) was 29% and the “change in number of c-kit+/CD90+ SMG cells compared to vehicle control” value (c-kit+/CD90+ SMG cells; 7 days of treatment) was “more than doubling; also recorded: more than doubled”. The “number of c-kit+/CD90+ cells in SMG” value (c-kit+/CD90+ SMG cells; 7 days of treatment by subcutaneous osmotic pump, vehicle 7.37±0.45%, p<0.05) was 17.8±0.95%, the “change in BrdU+ salisphere number after treatment of adult mice” value (SMG salispheres; adult mice, summary statement) was “more than doubling” and the “number of BrdU+ spheres” value (SMG salispheres; unselected SMG cells from mice treated 7 days, 3 days of culture, vehicle 66±1.42, p<0.05) was 91±0.83 spheres/5000 cells. The “total number of salispheres” value (SMG salispheres; unselected SMG cells from mice treated 7 days, 3 days of culture, vehicle 86±0.58, p<0.05) was 121±0.83 spheres/5000 cells.
